Converted amounts (≈) assume the structure as drawn.
Key:
S. cerevisiae = experiment: MIC determination, CLSI protocol M27-A3, OD490; assay type: cell-based; details: Saccharomyces cerevisiae; S. cerevisiae planktonic growth, 50% reduction vs control, mean±SEM
Procedure: S. cerevisiae BY4741 cells were grown in SMD minimal media to mid-log phase and then treated with the indicated concentrations of 5-MF; control cells were treated with the same amount of solvent (DMSO). (A) Clonogenicity was assayed by plating 500 cells on YPD agar plates and colony forming units (CFUs) were counted to calculate survival rates. (B) Yeast cells were analyzed for cell death markers via AnnV/PI co-staining using flow cytometry. (C) The accumulation of reactive oxygen species was monitored by dihydrotethidium (DHE) to ethidium (Eth) conversion using flow cytometry. Assays in (A-C) were performed on day 3 after treatment. […] Data was analyzed by one-way ANOVA and corrected for multiple comparison using a Bonferroni post-hoc test. ns: not significant, * p<0.05, *** p<0.001, **** p<0.0001. […] The minimal inhibitory concentration (MIC) was determined following the standard Clinical and Laboratory Standards Institute (CLSI) protocol M27 (Rex JH, and Clinical and Laboratory Standards Institute (2008). Reference method for broth dilution antifungal susceptibility testing of yeasts: approved standard, 3rd ed. National Committee for Clinical Laboratory Standards, Wayne, PA) for yeast strains or the standard CLSI protocol […] […] After incubation, OD490 values were measured using 96-well plate reader and growth capacity was analyzed by setting the corresponding control to 100%. […]

C. glabrata BG2 = experiment: MIC determination, CLSI protocol M27-A3, OD490; assay type: cell-based, Candida glabrata; details: Nakaseomyces glabratus; C. glabrata BG2 planktonic growth, mean±SEM
S. cerevisiae BY4741 [1] = experiment: AnnexinV/PI co-staining for cell death markers (flow cytometry); assay type: cell-based, Saccharomyces cerevisiae; details: day 3 after treatment, indicated concentrations
Procedure: S. cerevisiae BY4741 cells were grown in SMD minimal media to mid-log phase and then treated with the indicated concentrations of 5-MF; control cells were treated with the same amount of solvent (DMSO). (A) Clonogenicity was assayed by plating 500 cells on YPD agar plates and colony forming units (CFUs) were counted to calculate survival rates. (B) Yeast cells were analyzed for cell death markers via AnnV/PI co-staining using flow cytometry. (C) The accumulation of reactive oxygen species was monitored by dihydrotethidium (DHE) to ethidium (Eth) conversion using flow cytometry. Assays in (A-C) were performed on day 3 after treatment. […] Data was analyzed by one-way ANOVA and corrected for multiple comparison using a Bonferroni post-hoc test. ns: not significant, * p<0.05, *** p<0.001, **** p<0.0001. […] Cell death markers were assessed by AnnexinV/PI co-staining. Therefore, 1-2×10^7 cells were harvested and treated with 3 μL […]; Sigma, Germany) and 15 μL glucuronidase/arylsulfatase (4.5 U/mL; Roche, Austria) for sphaeroblastation (60 min at 28° C. and 145 rpm). Resulting sphaeroblasts were co-stained with AnnexinV (Roche, Austria) and PI (Sigma, Germany) and analyzed via flow cytometry, using an LSRII Fortessa (BD, Ex: 488 nm; Em: 695 nm for PI and 530 nm for FITC). At least 30,000 cells were analyzed for each sample.

S. cerevisiae BY4741 [2] = experiment: Clonogenic survival assay (CFU plating); assay type: cell-based, Saccharomyces cerevisiae; details: 200 μM 5-MF, day 3 after treatment, untreated control 100%
Procedure: S. cerevisiae BY4741 cells were grown in SMD minimal media to mid-log phase and then treated with the indicated concentrations of 5-MF; control cells were treated with the same amount of solvent (DMSO). (A) Clonogenicity was assayed by plating 500 cells on YPD agar plates and colony forming units (CFUs) were counted to calculate survival rates. (B) Yeast cells were analyzed for cell death markers via AnnV/PI co-staining using flow cytometry. (C) The accumulation of reactive oxygen species was monitored by dihydrotethidium (DHE) to ethidium (Eth) conversion using flow cytometry. Assays in (A-C) were performed on day 3 after treatment. […] Data was analyzed by one-way ANOVA and corrected for multiple comparison using a Bonferroni post-hoc test. ns: not significant, * p<0.05, *** p<0.001, **** p<0.0001. […] Yeast strains were streaked on YPD agar plates and allowed to grow for two days at 28° C. or 30° C., plates were then stored for up to one week at 4° C. […] Survival upon treatment with substances or combinations was analyzed by plating serial dilutions of treated cultures onto YPD agar plates. Plates were incubated for two days at 28° C., colony forming units (CFUs) were counted and survival was calculated compared to the untreated control.

C. glabrata biofilms = experiment: Biofilm inhibition by plating (CFU of biofilm cells); assay type: cell-based, Candida glabrata; details: different concentrations of 5-MF
C. albicans = experiment: In vitro antifungal activity of flavone in combination with azoles, growth via OD490; assay type: cell-based, Candida albicans; details: OD490, flavone plus azole vs each alone

For `COc1cccc2oc(-c3ccccc3)cc(=O)c12` [5-MF, 5-methoxyflavone], the MIC50 (S. cerevisiae) was 90.6 ± 12.4 µM (≈ 22.9 µg/mL), the MIC50 (C. glabrata BG2) was 202 ± 35.6 µM (≈ 50.9 µg/mL) and the “cell death markers, PI-positive fraction (AnnV/PI co-staining)” value (S. cerevisiae BY4741 [1]) was “mainly increased the PI-positive fraction in a concentration-dependent manner”. The “yeast survival (clonogenic assay, CFUs)” value (S. cerevisiae BY4741 [2]) was 31%, the “number of biofilm cells (CFUs on YPD agar)” value (C. glabrata biofilms) was “decreased in a concentration-dependent manner” and the “enhancement of the antifungal activity of azoles in the presence of the flavone” value (C. albicans) was “enhancement of the antifungal activity”.

Source: US12673038B2, “Antimycotic methoxyflavone and fluconazole combination for inhibiting cryptococcus” (Karl-Franzens-Universität Graz, priority 2019, dated 2026)
